The values that follow come from ChEMBL document CHEMBL5385942, “C3-Symmetric ligands in drug design: An overview of the challenges and opportunities ahead” (Bioorg Med Chem Lett, 2024).

Values joined by “and” are separate entries in the source; they are usually repeats but may differ in a detail not shown here. Identical values can stand only once. Active and inactive are the calls of the source. The calls are words filed in the database; no cut-off is given here.

One assay deals with LNCaP. The assay can be described thus: Antiproliferative activity against human LNCaP cells assessed as inhibition of cell growth incubated for 24 hrs by SRB assay. It counts as functional, cell-based. (The SRB assay estimates cell density from bound dye.)
The next assay relates to Jurkat. The assay can be described thus: Antiproliferative activity against human Jurkat cells assessed as inhibition of cell growth incubated for 24 hrs by SRB assay. It counts as functional, cell-based.
The nature of assay [1]: Antiproliferative activity against human SW707 cells assessed as inhibition of cell growth incubated for 24 hrs by SRB assay. In kind it is functional, cell-based. The following applies: SW707, 24 h.
In a further assay the test system is MCF7. The assay can be described thus: Antiproliferative activity against human MCF7 cells assessed as inhibition of cell growth incubated for 24 hrs by SRB assay. In kind it is functional, cell-based. The note with it: MCF7, 24 h.
A further assay has as its system T47D. Kind of assay: Antiproliferative activity against human T47D cells assessed as inhibition of cell growth incubated for 24 hrs by SRB assay. It counts as functional, cell-based.
The subject of the next assay is A549. Kind of assay: Antiproliferative activity against human A549 cells assessed as inhibition of cell growth incubated for 24 hrs by SRB assay. It counts as functional, cell-based. The following applies: A549, 24 h.
The next assay has as its system Staphylococcus aureus. The assay can be described thus: Antimicrobial activity against Staphylococcus aureus MTCC 96 assessed as zone of inhibition by […]. It counts as functional. In general terms: In broth dilution the organism is exposed to a series of concentrations in liquid medium.
A further assay relates to Micrococcus luteus. The assay can be described thus: Antimicrobial activity against Micrococcus luteus ATCC 9341 assessed as zone of inhibition by […]. In kind it is functional.
A further assay relates to Bacillus subtilis. Kind of assay: Antimicrobial activity against Bacillus subtilis MTCC 441 assessed as zone of inhibition by […]. It counts as functional.
A further assay deals with Human betaherpesvirus 5. The assay can be described thus: Antiviral activity against HCMV infected in HFF cells assessed as reduction in viral replication. In kind it is functional, organism-based. The following applies: Human betaherpesvirus 5, HFF.
Assay [2] deals with Quadruplex DNA. Kind of assay: Stabilization of human G4 quadruplex telomeric22 DNA assessed as change in temperature at 1 uM by FRET assay. It counts as nucleic-acid assay.
The subject of assay [3] is Quadruplex DNA. The assay can be described thus: Stabilization of human G4 quadruplex telomeric22 DNA assessed as change in temperature at 10 uM by FRET assay. It counts as nucleic-acid assay.
In assay [4] the test system is Quadruplex DNA. Kind of assay: Stabilization of human G4 quadruplex telomeric22 DNA assessed as change in temperature at 5 uM by FRET assay. In kind it is nucleic-acid assay.
In a further assay the test system is Pseudomonas aeruginosa. The assay can be described thus: Antimicrobial activity against Pseudomonas aeruginosa MTCC 741 assessed as zone of inhibition by […]. In kind it is functional, organism-based.
A further assay deals with Escherichia coli. Kind of assay: Antimicrobial activity against Escherichia coli ATCC 25922 assessed as zone of inhibition by […]. In kind it is functional.
The test system of a further assay is HeLa. Kind of assay: Cytotoxicity against human HeLa cells assessed as inhibition of cell growth incubated for 24 hrs by MTT assay. It counts as functional, cell-based. For orientation: Tetrazolium assays rely on reduction of a dye to a coloured formazan, in cell work by metabolically active cells.
Assay [5] can be described thus: Growth inhibition of human NCI cells. In kind it is functional.
The test system of a further assay is HepG2. Kind of assay: Cytotoxicity against human HepG2 cells assessed as inhibition of cell growth incubated for 24 to 48 hrs by MTT assay. It counts as functional, cell-based.
For another assay, the system named is MDA-MB-468. The assay can be described thus: Antiproliferative activity against human MDA-MB-468 cells assessed as inhibition of cell growth. In kind it is functional, cell-based.

Turning to `ClCCCN1CCN(c2nc(N3CCN(CCCl)CC3)nc(N3CCN(CCCl)CC3)n2)CC1`, the IC50 in the assay on LNCaP amounted to 620 nM; in the assay on Jurkat, 620 nM; in assay [1], 620 nM; in the assay on MCF7, 18700 nM; in the assay on T47D, 620 nM; with A549, 620 nM.
As to `NC(=S)N1N=C(c2ccc(Oc3nc(Oc4ccc(C5=NN(C(N)=S)C(c6ccccc6)C5)cc4)nc(Oc4ccc(C5=NN(C(N)=S)C(c6ccccc6)C5)cc4)n3)cc2)CC1c1ccccc1` (centres undefined), the figures for the “inhibition zone (IZ)” value with Staphylococcus aureus, in the assay with Micrococcus luteus and with Bacillus subtilis were 13 mm, 15 mm and 11 mm, respectively.
Take `C[C@@H]1CCC2[C@@H](C)[C@H](OC(=O)CCC(=O)OCC(COC(=O)CCC(=O)O[C@@H]3O[C@@H]4O[C@]5(C)CC[C@H]6[C@H](C)CCC([C@H]3C)[C@@]46OO5)COC(=O)CCC(=O)O[C@@H]3O[C@@H]4O[C@]5(C)CC[C@H]6[C@H](C)CCC([C@H]3C)[C@@]46OO5)O[C@@H]3O[C@]4(C)CC[C@@H]1[C@@]23OO4` (some centres undefined): in the assay on Human betaherpesvirus 5, the concentration for a half-maximal effect (EC50) (as a rule, the concentration that produces a half-maximal response) amounted to 530 nM.
For the compound `NC(=S)N1N=C(c2ccc(Oc3nc(Oc4ccc(C5=NN(C(N)=S)C(c6ccc(Cl)cc6)C5)cc4)nc(Oc4ccc(C5=NN(C(N)=S)C(c6ccc(Cl)cc6)C5)cc4)n3)cc2)CC1c1ccc(Cl)cc1` (centres undefined), the “inhibition zone (IZ)” value stood at 11 mm in the assay on Staphylococcus aureus, 18 mm with Micrococcus luteus and 10 mm in the assay with Bacillus subtilis.
With `Cc1ccc(C2CC(c3ccc(Oc4nc(Oc5ccc(C6=NN(C(N)=S)C(c7ccc(C)cc7)C6)cc5)nc(Oc5ccc(C6=NN(C(N)=S)C(c7ccc(C)cc7)C6)cc5)n4)cc3)=NN2C(N)=S)cc1` (centres undefined), the figures for the “inhibition zone (IZ)” value in the assay with Staphylococcus aureus, with Micrococcus luteus and in the assay on Bacillus subtilis were 11 mm, 20 mm and 9 mm, respectively.
Consider `O=C(/C=C/c1ccc(Cl)cc1Cl)c1ccc(Oc2nc(Oc3ccc(C(=O)/C=C/c4ccc(Cl)cc4Cl)cc3)nc(Oc3ccc(C(=O)/C=C/c4ccc(Cl)cc4Cl)cc3)n2)cc1`, for which the “inhibition zone (IZ)” value in the assay on Staphylococcus aureus was 10 mm and 7 mm; in the assay on Micrococcus luteus, 7 mm and 10 mm; in the assay on Bacillus subtilis it was 7 mm and 8 mm.
Consider `c1ccc2c(c1)c1cc(-c3cc(-c4ccc5c(c4)c4ccccc4n5CCN4CCOCC4)cc(-c4ccc5c(c4)c4ccccc4n5CCN4CCOCC4)c3)ccc1n2CCN1CCOCC1`, for which the outcome in the assay on Quadruplex DNA [2], in the assay on Quadruplex DNA [3] and in the assay with Quadruplex DNA [4] was inactive.
With `O=C(/C=C/c1ccc([N+](=O)[O-])cc1)c1ccc(Oc2nc(Oc3ccc(C(=O)/C=C/c4ccc([N+](=O)[O-])cc4)cc3)nc(Oc3ccc(C(=O)/C=C/c4ccc([N+](=O)[O-])cc4)cc3)n2)cc1`, the inhibition zone (IZ) with Micrococcus luteus is 7 mm; in the assay with Pseudomonas aeruginosa, 7 mm; with Bacillus subtilis it was 7 mm; in the assay on Escherichia coli, 6 mm.
As for `c1ccc2c(c1)c1cc(-c3cc(-c4ccc5c(c4)c4ccccc4n5CCN4CCCCC4)cc(-c4ccc5c(c4)c4ccccc4n5CCN4CCCCC4)c3)ccc1n2CCN1CCCCC1`, the outcome in the assay with Quadruplex DNA [2] was inactive. The figures for the ΔTm in the assay with Quadruplex DNA [3] and with Quadruplex DNA [4] were 4.9 °C and 2.3 °C, respectively.
Consider `O=C1c2cccc3cccc(c23)C(=O)N1CCCn1c(CCN(CCc2nc3ccccc3n2CCCN2C(=O)c3cccc4cccc(c34)C2=O)CCc2nc3ccccc3n2CCCN2C(=O)c3cccc4cccc(c34)C2=O)nc2ccccc21`, for which the IC50 in the assay on HeLa worked out at 150000 nM.
With `c1ccc2c(c1)c1cc(-c3cc(-c4ccc5c(c4)c4ccccc4n5CCCN4CCOCC4)cc(-c4ccc5c(c4)c4ccccc4n5CCCN4CCOCC4)c3)ccc1n2CCCN1CCOCC1`, the outcome in the assay with Quadruplex DNA [2], in the assay on Quadruplex DNA [3] and with Quadruplex DNA [4] was inactive.
For `c1ccc2c(c1)c1cc(-c3cc(-c4ccc5c(c4)c4ccccc4n5CCCN4CCCC4)cc(-c4ccc5c(c4)c4ccccc4n5CCCN4CCCC4)c3)ccc1n2CCCN1CCCC1`, the ΔTm – broadly, the change in melting temperature against a reference sample – with Quadruplex DNA [2] worked out at 2.6 °C; in the assay on Quadruplex DNA [3] it was 17.5 °C; in the assay on Quadruplex DNA [4], 14.3 °C.
Take `c1ccc(Nc2nc(Nc3ccccn3)nc(Nc3ccccn3)n2)nc1`: in [5], the GI50 (usually the concentration giving 50% growth inhibition) is 49800 nM.
In the case of `O=C(N/N=C\c1ccc(N(CCCl)CCCl)cc1)c1cc(C(=O)N/N=C\c2ccc(N(CCCl)CCCl)cc2)cc(C(=O)N/N=C/c2ccc(N(CCCl)CCCl)cc2)c1`, the IC50 with HepG2 is 25 µmol.
`O=C(/C=C/c1ccccc1)c1ccc(Oc2nc(Oc3ccc(C(=O)/C=C/c4ccccc4)cc3)nc(Oc3ccc(C(=O)/C=C/c4ccccc4)cc3)n2)cc1`: the “inhibition zone (IZ)” value in the assay with Micrococcus luteus turned out to be 7 mm; with Bacillus subtilis it was 7 mm; in the assay with Escherichia coli, 6 mm.
Take `CCN(CC)CCn1c2ccccc2c2cc(-c3cc(-c4ccc5c(c4)c4ccccc4n5CCN(CC)CC)cc(-c4ccc5c(c4)c4ccccc4n5CCN(CC)CC)c3)ccc21`: the ΔTm with Quadruplex DNA [2] came to 2.8 °C; with Quadruplex DNA [3], 3.3 °C; in the assay on Quadruplex DNA [4], 4.9 °C.
As to `NC(=S)N1N=C(c2ccc(Oc3nc(Oc4ccc(C5=NN(C(N)=S)C(c6cccc([N+](=O)[O-])c6)C5)cc4)nc(Oc4ccc(C5=NN(C(N)=S)C(c6cccc([N+](=O)[O-])c6)C5)cc4)n3)cc2)CC1c1cccc([N+](=O)[O-])c1` (centres undefined), the “inhibition zone (IZ)” value in the assay on Staphylococcus aureus is on record as 10 mm; with Micrococcus luteus, 16 mm; in the assay with Bacillus subtilis it was 13 mm.
In the case of `c1ccc(Sc2nc(Sc3ccccn3)nc(Sc3ccccn3)n2)nc1`, in the assay on MDA-MB-468, the IC50 worked out at 216000 nM. This compound also yielded a 50% growth inhibitory concentration (GI50) in assay [5] of 3170 nM.
`c1ccc2c(c1)[nH]c1ccc(-c3cc(-c4ccc5[nH]c6ccccc6c5c4)cc(-c4ccc5[nH]c6ccccc6c5c4)c3)cc12`: the shift in melting temperature (ΔTm) with Quadruplex DNA [2] is 1.1 °C; with Quadruplex DNA [3], 2.6 °C; with Quadruplex DNA [4], 4 °C.
In the same order, the values of `c1ccc2c(c1)c1cc(-c3cc(-c4ccc5c(c4)c4ccccc4n5CCN4CCCC4)cc(-c4ccc5c(c4)c4ccccc4n5CCN4CCCC4)c3)ccc1n2CCN1CCCC1` are 1.9 °C, 13 °C and 10 °C.
Regarding `Cc1ccc(/C=C/C(=O)c2ccc(Oc3nc(Oc4ccc(C(=O)/C=C/c5ccc(C)cc5)cc4)nc(Oc4ccc(C(=O)/C=C/c5ccc(C)cc5)cc4)n3)cc2)cc1`, the “inhibition zone (IZ)” value in the assay on Staphylococcus aureus was 7 mm; with Micrococcus luteus it was 11 mm; in the assay on Bacillus subtilis it was 10 mm.
The compound `c1ccc(Sc2nc(Sc3ccccc3)nc(Sc3ccccc3)n2)cc1` displayed a GI50 in assay [5] of more than 100000 nM.
